Source: US20220081412A1, “QUINOLINYL-PYRAZINE-CARBOXAMIDE COMPOUNDS AND USES THEREOF” (The Regents of the University of Michigan, priority 2018, published 2022)

Test system: cancer cells
Assay: Proteomics study (up- and downregulated proteins)
Assay type: cell-based
Settings: for Hydroxymethylglutaryl-CoA synthase, cytoplasmic (HMGCS1) protein: proteomics
Source text: Proteomics provide a comprehensive understanding of mechanisms that are responsible for the cytotoxicity of anticancer drugs, and based on the expression of protein helps in identification of drug targets (see, Wang, Y.; et al., Met Based Drugs. 2008, 1-9). One of the disadvantages of proteomics is membrane-bound proteins due to their poor solubility and low abundance, are disproportionally represented in proteome profiles (see, Smith, C. Nature, 2004, 428, 225-231). Identification of target proteins utilizing proteomics technique coupled with mass spectrometry is an evolving technology platform that has the potential to identify novel proteins involved in key biological processes in cells. There are two mass spectrometry-based methods currently used for protein profiling. The use of high-resolution two-dimensional electrophoresis to separate proteins from different samples, followed by selection and staining of differentially expressed proteins to be identified by mass spectrometry is the more established method. In the second approach isotope coded affinity tag (ICAT) reagents are utilized to differentially label proteins from two different complex mixtures, that are then digested to yield labeled peptides. The labeled mixtures are then combined, the peptides separated by multidimensional liquid chromatography and analyzed by tandem mass spectrometry. In this method, complexity of the mixtures omitting the non-cysteine residues is reduced as here the cysteine residues of proteins get covalently attached to the ICAT reagent. Proteomics coupled with bioinformatics process the raw mass spectral data into protein data (see, Yu, L. R.; Essentials of Genomic and Personalized Medicine 2010, 89-96). The most critical software programs take peptide mapping and/or tandem MS results and determine the protein or peptide sequence that are most closely related to the experimental data. One of the more intriguing MS-based proteomic techniques is to identify the proteins which are overexpressed thus aids in identification of the target protein of the given drug. There are several examples reported in literature about successful application of Bru-seq and proteomics for identification of mechanism of action of drugs.
It is the second step in the mevalonate-dependent isoprenoid biosynthesis pathway. HMG-CoA is an intermediate in both cholesterol synthesis and ketogenesis. Thus, here the proteomics results are in accordance with the Bru-seq results, implying “cholesterol biosynthesis pathway” as key pathway activated by these series of compounds.
Among its related pathways are regulation of cholesterol biosynthesis by SREBP (SREBF) and terpenoid backbone biosynthesis.

[1] = protein: 28S ribosomal protein S16, mitochondrial, downregulated
[2] = protein: 28S ribosomal protein S17, mitochondrial, downregulated
[3] = protein: 28S ribosomal protein S18b, mitochondrial, downregulated
[4] = protein: 28S ribosomal protein S22, mitochondrial, downregulated
[5] = protein: 28S ribosomal protein S25, mitochondrial, downregulated
[6] = protein: 40S ribosomal protein S8, upregulated
[7] = protein: 40S ribosomal protein S26, upregulated
[8] = protein: 40S ribosomal protein S30, upregulated
[9] = protein: 60S ribosomal protein L19, upregulated
[10] = protein: 60S ribosomal protein L27a, upregulated
[11] = protein: 60S ribosomal protein L36a-like, upregulated
[12] = protein: 60S ribosomal protein L37, upregulated
[13] = protein: Aconitate hydratase, mitochondrial, downregulated
[14] = protein: Acyl-CoA desaturase, upregulated
[15] = protein: Alanine aminotransferase 2, upregulated
[16] = protein: Aldehyde dehydrogenase X, downregulated
[17] = protein: Apolipoprotein A-I, upregulated
[18] = protein: Apolipoprotein B-100, upregulated
[19] = protein: Apolipoprotein C-III, upregulated
[20] = protein: Beta-2-glycoprotein 1, upregulated
[21] = protein: Bleomycin hydrolase, upregulated
[22] = protein: Constitutive coactivator of peroxisome proliferator-activated receptor gamma, downregulated
[23] = protein: Copper-transporting ATPase 2, upregulated
[24] = protein: D-dopachrome decarboxylase, downregulated
[25] = protein: DNA topoisomerase 2-alpha, downregulated
[26] = protein: Deoxyribonuclease-2-alpha, upregulated
[27] = protein: Dermcidin, upregulated
[28] = protein: Diphthine methyltransferase, upregulated
[29] = protein: E3 ubiquitin-protein ligase TRIM69, upregulated
[30] = protein: Elongation factor G, mitochondrial, downregulated
[31] = protein: FAST kinase domain-containing protein 5, mitochondrial, downregulated
[32] = protein: Filamin-C, upregulated
[33] = protein: GH3 domain-containing protein, upregulated
[34] = protein: Histone H1.2, downregulated
[35] = protein: Hydroxymethylglutaryl-CoA synthase, cytoplasmic, upregulated
[36] = protein: Interleukin-36 beta, downregulated
[37] = protein: Iron-responsive element-binding protein 2, upregulated
[38] = protein: Keratin, type I cytoskeletal 20, downregulated
[39] = protein: Kinesin-like protein KIF27, upregulated
[40] = protein: LanC-like protein 2, downregulated
[41] = protein: MBT domain-containing protein 1, downregulated
[42] = protein: Mixed lineage kinase domain-like protein, upregulated
[43] = protein: Muellerian-inhibiting factor, upregulated
[44] = protein: NADH dehydrogenase [ubiquinone] 1 alpha subcomplex subunit 6, downregulated
[45] = protein: NADH dehydrogenase [ubiquinone] iron-sulfur protein 4, mitochondrial, downregulated
[46] = protein: NADH-ubiquinone oxidoreductase 75 kDa subunit, mitochondrial, downregulated
[47] = protein: Nucleolar transcription factor 1, downregulated
[48] = protein: Phosphatidylserine synthase 1, upregulated
[49] = protein: Proliferation marker protein Ki-67, downregulated
[50] = protein: Protein FAM83H, downregulated
[51] = protein: Protein FAM177A1, upregulated
[52] = protein: Protein PIMREG, upregulated
[53] = protein: Protein cornichon homolog 4, upregulated
[54] = protein: Putative ankyrin repeat domain-containing protein 31, upregulated
[55] = protein: RNA-binding motif protein, X chromosome, downregulated
[56] = protein: Scaffold attachment factor B1, downregulated
[57] = protein: Scaffold attachment factor B2, downregulated
[58] = protein: Sequestosome-1, upregulated
[59] = protein: Serine/threonine-protein kinase PLK4, upregulated
[60] = protein: Squalene synthase, upregulated
[61] = protein: Transcription elongation factor 1 homolog, downregulated

CCN(CC)CCCC(C)Nc1cnc(C(=O)Nc2cc(C)cc3cccnc23)cn1 (stereo not drawn) [J4, 5-((5-(diethylamino)pentan-2-yl)amino)-N-(6-methylquinolin-8-yl)pyrazine-2-carboxamide]
Abundance ratio [1]: 0.403
Abundance ratio (log2) [1]: −1.31
Abundance ratio [2]: 0.452
Abundance ratio (log2) [2]: −1.15
Abundance ratio [3]: 0.337
Abundance ratio (log2) [3]: −1.57
Abundance ratio [4]: 0.432
Abundance ratio (log2) [4]: −1.21
Abundance ratio [5]: 0.402
Abundance ratio (log2) [5]: −1.32
Abundance ratio [6]: 1.777
Abundance ratio (log2) [6]: 0.83
Abundance ratio [7]: 1.717
Abundance ratio (log2) [7]: 0.78
Abundance ratio [8]: 1.649
Abundance ratio (log2) [8]: 0.72
Abundance ratio [9]: 1.761
Abundance ratio (log2) [9]: 0.82
Abundance ratio [10]: 1.713
Abundance ratio (log2) [10]: 0.78
Abundance ratio [11]: 1.623
Abundance ratio (log2) [11]: 0.7
Abundance ratio [12]: 1.808
Abundance ratio (log2) [12]: 0.85
Abundance ratio [13]: 0.489
Abundance ratio (log2) [13]: −1.03
Abundance ratio [14]: 2.148
Abundance ratio (log2) [14]: 1.1
Abundance ratio [15]: 1.616
Abundance ratio (log2) [15]: 0.69
Abundance ratio [16]: 0.278
Abundance ratio (log2) [16]: −1.85
Abundance ratio [17]: 1.891
Abundance ratio (log2) [17]: 0.92
Abundance ratio [18]: 2.151
Abundance ratio (log2) [18]: 1.1
Abundance ratio [19]: 2.072
Abundance ratio (log2) [19]: 1.05
Abundance ratio [20]: 1.622
Abundance ratio (log2) [20]: 0.7
Abundance ratio [21]: 1.845
Abundance ratio (log2) [21]: 0.88
Abundance ratio [22]: 0.419
Abundance ratio (log2) [22]: −1.25
Abundance ratio [23]: 1.807
Abundance ratio (log2) [23]: 0.85
Abundance ratio [24]: 0.487
Abundance ratio (log2) [24]: −1.04
Abundance ratio [25]: 0.381
Abundance ratio (log2) [25]: −1.39
Abundance ratio [26]: 1.649
Abundance ratio (log2) [26]: 0.72
Abundance ratio [27]: 2.454
Abundance ratio (log2) [27]: 1.3
Abundance ratio [28]: 1.633
Abundance ratio (log2) [28]: 0.71
Abundance ratio [29]: 1.906
Abundance ratio (log2) [29]: 0.93
Abundance ratio [30]: 0.245
Abundance ratio (log2) [30]: −2.03
Abundance ratio [31]: 0.382
Abundance ratio (log2) [31]: −1.39
Abundance ratio [32]: 2.026
Abundance ratio (log2) [32]: 1.02
Abundance ratio [33]: 1.742
Abundance ratio (log2) [33]: 0.8
Abundance ratio [34]: 0.462
Abundance ratio (log2) [34]: −1.11
Abundance ratio [35]: 1.944
Abundance ratio (log2) [35]: 0.96
Abundance ratio [36]: 0.462
Abundance ratio (log2) [36]: −1.12
Abundance ratio [37]: 2.136
Abundance ratio (log2) [37]: 1.09
Abundance ratio [38]: 0.439
Abundance ratio (log2) [38]: −1.19
Abundance ratio [39]: 1.89
Abundance ratio (log2) [39]: 0.92
Abundance ratio [40]: 0.327
Abundance ratio (log2) [40]: −1.61
Abundance ratio (protein: Lumican, upregulated): 1.612
Abundance ratio (log2) (protein: Lumican, upregulated): 0.69
Abundance ratio [41]: 0.233
Abundance ratio (log2) [41]: −2.1
Abundance ratio [42]: 1.861
Abundance ratio (log2) [42]: 0.9
Abundance ratio [43]: 1.824
Abundance ratio (log2) [43]: 0.87
Abundance ratio [44]: 0.473
Abundance ratio (log2) [44]: −1.08
Abundance ratio [45]: 0.468
Abundance ratio (log2) [45]: −1.1
Abundance ratio [46]: 0.488
Abundance ratio (log2) [46]: −1.03
Abundance ratio [47]: 0.484
Abundance ratio (log2) [47]: −1.05
Abundance ratio [48]: 1.946
Abundance ratio (log2) [48]: 0.96
Abundance ratio [49]: 0.474
Abundance ratio (log2) [49]: −1.08
Abundance ratio [50]: 0.46
Abundance ratio (log2) [50]: −1.12
Abundance ratio [51]: 3.085
Abundance ratio (log2) [51]: 1.63
Abundance ratio [52]: 1.711
Abundance ratio (log2) [52]: 0.77
Abundance ratio [53]: 1.656
Abundance ratio (log2) [53]: 0.73
Abundance ratio [54]: 1.786
Abundance ratio (log2) [54]: 0.84
Abundance ratio [55]: 0.441
Abundance ratio (log2) [55]: −1.18
Abundance ratio [56]: 0.401
Abundance ratio (log2) [56]: −1.32
Abundance ratio [57]: 0.405
Abundance ratio (log2) [57]: −1.3
Abundance ratio [58]: 1.69
Abundance ratio (log2) [58]: 0.76
Abundance ratio [59]: 3.158
Abundance ratio (log2) [59]: 1.66
Abundance ratio [60]: 1.597
Abundance ratio (log2) [60]: 0.68
Abundance ratio [61]: 0.364
Abundance ratio (log2) [61]: −1.46
Hydroxymethylglutaryl-CoA synthase, cytoplasmic (HMGCS1) protein: upregulation
Hydroxymethylglutaryl-CoA synthase, cytoplasmic (HMGCS1) protein (listed as JR-1-235): upregulated
